Measurements reported in PMC6027146, “Synthesis and Structure-Activity Relationships of (−)-cis-N-Normetazocine-Based LP1 Derivatives” (Pharmaceuticals, 2018).

Legend:
[1] = biological target: T1, rat-MOR (Rattus norvegicus, UniProt P33535); experiment: Radioligand competition binding, [3H]-DPN, HEK293 membranes, MOR; conditions: [3H]-DPN displacement; means ± SEM of three experiments in duplicate; read-out: Ki (μM) ± SEM MOR
T1 construct: expressed in transfected cells
Protocol: (§1) All synthesized compounds were tested in vitro by radioligand competition binding using [^3H]-diprenorphine ([^3H]-DPN) to measure the affinity for opioid receptor subtypes in membranes from HEK293 cells stably expressing either MOR, DOR, or KOR, as previously described.
(§2) Confluent monolayers of HEK293 (human embryonic kidney 293) cells stably expressing rat-MOR, rat-DOR, or human-KOR were harvested, collected by centrifugation at 1500 rpm for 5 min, and washed once with phosphate-buffered saline (PBS) at pH 7.5. Membranes from cell pellets were carried out as described by Georgoussi and Zioudrou (1993) and Papakonstantinou et al. (2015). Briefly, cell pellets were resuspended in ice-cold membrane buffer (10 mM Tris-HCl, pH 7.5 and 0.1 mM EDTA), homogenized, and centrifuged at 2,000 g for 3 min at 4 °C. Supernatants were further centrifuged at 45,000 rpm for 30 min at 4 °C. The membrane pellet was resuspended in ice-cold membrane buffer at a protein concentration of approximately 1 mg/mL and stored in aliquots at −70 °C. Protein concentration was determined according to Bradford assay.
(§3) In the experiments designed to define compound affinity and selectivity for MOR, DOR, and KOR, membranes expressing each of these opioid receptors ([…]) were incubated at 30 °C for 45 min in buffer containing 50 mM Tris-HCl, pH 7.5, 100 mM NaCl, and 10 mM MgCl2 as described by Georgoussi et al. […] The ability of compounds 10–16 to displace [^3H]-DPN (3.75 nM) binding to the opioid receptors was assessed as described by Morou And Georgoussi (2005). Non-specific binding was measured in the presence of […] Naloxone. The reaction was stopped by rapid filtration and three washes in ice-cold 50 mM Tris-HCl, pH 7.4, through GF/C filters (Whatman, Maidstone, UK) using an automated cell harvester (Brandel Inc., Gaithersburg, MD, USA). The radioactivity was measured by liquid scintillation counting (Liquid Scintillation Analyzer, Packard).
(§4) Analysis of the binding data was performed using the Origin 7.5 software (OriginLab Corporation, Northampton, MA, USA). In calcium mobilization experiments, data were analyzed by non-linear curve fitting equation, using GraphPad 5.0 software. […] Ligand efficacy was expressed as intrinsic activity (α), calculated as the ratio between the Emax of the ligand and that of the respective standards. Calcium mobilization data were expressed as FIU (fluorescence intensity units) in percent, over the baseline. Agonist potencies are given as pEC50 (the negative logarithm to base 10 of the molar concentration of an agonist that produces 50% of the maximal possible effect, Emax). Concentration response curves to agonists were fitted with the following equation: Effect = baseline + (Emax − baseline)/(1+10^(LogEC50 − X) ∗ HillSlope) where X is the agonist concentration.

[2] = biological target: T2, rat-DOR (Rattus norvegicus, UniProt P33533); experiment: Radioligand competition binding, [3H]-DPN, HEK293 membranes, DOR; conditions: [3H]-DPN displacement; means ± SEM of three experiments in duplicate; read-out: Ki (μM) ± SEM DOR
T2 construct: expressed in transfected cells
Protocol: as §1, §2, §3, §4

[3] = biological target: human-KOR (Homo sapiens, UniProt P41145); experiment: Radioligand competition binding, [3H]-DPN, HEK293 membranes, KOR; design: expressed in transfected cells; conditions: [3H]-DPN displacement; means ± SEM of three experiments in duplicate; read-out: Ki (μM) ± SEM KOR
Protocol: as §1, §2, §3, §4

C[C@H]1[C@H]2Cc3ccc(O)cc3[C@]1(C)CCN2CCC(=O)Nc1ccccc1 [LP1, 3-[(2R,6R,11R)-8-hydroxy-6,11-dimethyl-1,4,5,6-tetrahydro-2,6-methano-3-benzazocin-3(2H)-yl]-N-phenylpropanamide, reference compound]
Ki [1]: 0.049 ± 0.015 µM | Ki [2]: 0.033 ± 0.02 µM | Ki [3]: 7.5 ± 0.015 µM
